{"source": "patent US20120022047A1", "about": "“PROCESS FOR THE PURIFICATION OF ESLICARBAZEPINE ACETATE” (GLENMARK GENERICS LTD, priority 2009, published 2012)", "key": {"[1]": {"assay": "Particle size distribution by laser diffraction (Malvern Mastersizer)", "assay_type": "physicochemical", "details": "crystal particles obtained by the processes herein described", "description": "As used herein, the phrase, “particle size distribution (PSD)” means the cumulative volume size distribution of equivalent spherical diameters as determined by laser diffraction at 1 bar dispersive pressure in a Sympatec Helos equipment. d10, as used herein is defined as the particle size at which the cumulative percentage undersize is 10 (i.e. the bottom 10% of particles are less than or equal to the stated size). d50 means the median particle size and d90 is defined as the particle size at which the cumulative percentage undersize is 90 (i.e. the bottom 90% of particles are less than or equal to the stated size). The particle size of eslicarbazepine acetate was measured under following conditions. [table] In accordance with the invention, the size distribution of eslicarbazepine acetate particles is determined by laser diffraction. In the present invention, the method in the determination of the size of eslicarbazepine acetate particles employed a Malvern Mastersizer laser diffraction instrument. Samples of the eslicarbazepine acetate were suspended in hexane containing a surfactant, 1% Tween80®. The suspensions were mixed and then sonicated for 120 seconds to thoroughly disperse the eslicarbazepine acetate particles. The dispersion was then circulated in the flow cell of the Malvern Mastersizer for two minutes before particle size measurements were taken."}, "[2]": {"assay": "Specific surface area by Brunauer-Emmett-Teller (B.E.T.) nitrogen absorption", "assay_type": "physicochemical", "details": "crystal particles, measured by B.E.T.", "description": "Specific surface area is defined in units of square meters per gram (m2/g). It is usually measured by nitrogen absorption analysis. In this analysis, nitrogen is absorbed on the surface of the substance. The amount of the absorbed nitrogen (as measured during the absorption or the subsequent desorption process) is related to the surface area via a formula known as the Brunauer Emmet Teller (B.E.T.) formula."}}}
{"smiles": "CC(=O)O[C@H]1Cc2ccccc2N(C(N)=O)c2ccccc21", "note": "[eslicarbazepine acetate, (S)-(−)-10-(acetyloxy)-10,11-dihydro-5H-dibenz[b,f]-azepine-5-carboxamide]", "values": [{"measurement": "Particle size distribution d 10", "setting": "[1]", "result": 5.421, "unit": "μm"}, {"measurement": "Particle size distribution d 50 (median particle size)", "setting": "[1]", "result": 19.780, "unit": "μm"}, {"measurement": "Particle size distribution d 90", "setting": "[1]", "result": 168.686, "unit": "μm"}, {"measurement": "Specific surface area", "setting": "[2]", "result": "about 1.37 m^2/g"}]}
